Patent US20260008862A1, “Bispecific Anti-BCMA x Anti-CD3 Antibodies and Uses Thereof” (Regeneron Pharmaceuticals, Inc., priority 2018, published 2026)
pEC50: −log10 of the molar value. Entries after “also recorded” stand apart in the source; their conditions may differ.

Key:
[1] = target: T1, cynomolgus CD3 (mfCD3 engineered Jurkat cell line) (Macaca fascicularis, UniProt Q95LI5+Q95LI8); assay: FACS binding to mfCD3 engineered Jurkat cells; settings: median EC50, FACS binding
T1 construct: expressed in transfected cells; host or cells: Jurkat cells, CRISPR/Cas9-engineered (mfCD3 engineered Jurkat cell line)
T1 sequence (Q95LI5 22-198, change not shown): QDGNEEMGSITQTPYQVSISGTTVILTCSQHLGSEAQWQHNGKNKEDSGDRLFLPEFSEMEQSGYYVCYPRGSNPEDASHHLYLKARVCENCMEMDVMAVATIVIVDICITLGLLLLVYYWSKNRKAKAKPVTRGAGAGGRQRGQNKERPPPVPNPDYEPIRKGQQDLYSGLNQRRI
T1 sequence (Q95LI8 22-171, change not shown): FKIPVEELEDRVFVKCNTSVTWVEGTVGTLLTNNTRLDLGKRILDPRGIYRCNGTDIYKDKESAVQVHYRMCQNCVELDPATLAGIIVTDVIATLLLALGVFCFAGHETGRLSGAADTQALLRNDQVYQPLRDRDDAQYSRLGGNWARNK
T1 sequence (P09693 23-182 partner): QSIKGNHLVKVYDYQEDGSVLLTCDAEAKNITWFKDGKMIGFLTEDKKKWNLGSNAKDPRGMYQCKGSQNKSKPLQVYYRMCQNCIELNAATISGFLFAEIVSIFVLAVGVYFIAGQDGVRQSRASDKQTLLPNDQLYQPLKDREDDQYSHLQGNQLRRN
T1 sequence (P20963 22-164 partner): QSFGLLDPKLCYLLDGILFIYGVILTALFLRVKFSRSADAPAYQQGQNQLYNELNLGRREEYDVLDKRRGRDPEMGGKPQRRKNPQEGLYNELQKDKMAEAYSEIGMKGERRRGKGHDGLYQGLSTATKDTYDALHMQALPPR
Description: Flow cytometric analysis was utilized to determine binding of BCMA×CD3 bispecific antibodies to human and cynomolgus CD3 (Jurkat cells, mfCD3 engineered Jurkat cells, primary human CD8+ and cynomolgus CD8+ T cells). Briefly, 1e05 cells/well were incubated in the presence of FACS wash with block (PBS+1% filtered FBS+5% mouse serum) with a serial dilution of BCMA×CD3 and control antibodies for 30 minutes on ice. After incubation, the cells were washed twice with cold FACS wash (PBS+1% filtered FBS) and bound antibody was detected by incubating with Alexa647-conjugated anti-human secondary antibody on ice for an additional 30 minutes. Wells containing no antibody or secondary only were used as a control. For the detection of monkey and human T cells, a cocktail of human and cynomolgus cross-reactive antibodies to CD4, CD8 and CD16 was added to the anti-human secondary. After incubation, cells were washed, re-suspended in 200 μL cold PBS containing 1% filtered FBS and analyzed by flow cytometry on a BD FACS Canto II. Cells were gated by FSC-H by FSC-A to select singlet events, followed by side and forward scatters to select for live events. For monkey T cells, additional gating on CD8+/CD16− cells was performed.
EC50 values for FACS binding were calculated using 4-parameter non-linear regression analysis in Prism software. […]

[2] = system: Jurkat/NFATLuc.3C7 cells + RPMI-8226 cells; assay: Jurkat/NFATLuc reporter bioassay with RPMI-8226 cells; format: cell-based; settings: highest RLU / lowest RLU
Description: Activity of the anti-BCMA×anti-CD3 bispecific antibodies were assessed in a Jurkat/NFATLuc reporter bioassay utilizing several cell lines with varying levels of BCMA surface expression. The Jurkat cells were engineered to express an NFAT-luciferase reporter (Jurkat/NFATLuc.3C7), and 50,000 Jurkat reporter cells were combined with 50,000 BCMA positive (Daudi, MM1-S, NCI-H929, OPM-2, RPMI-8226, MOLP-8, or Raji) or BCMA negative (HEK293) cells in Thermo Nunclon delta 96 well white microwell plates (Thermo Scientific, Cat #136102) in 50 ul of assay media (RPMI media with 10% FBS and 1% P/S/G). Three-fold serial dilutions of the BCMA×CD3 bispecific antibodies (mAb25441 D or mAb25442D), or a bivalent anti-BCMA antibody (mAb21581) were immediately added in 50 μL of assay buffer. The plates were gently agitated and incubated in a 37° C., 5% CO2 incubator for 4-6 hours. NFAT-Luciferase activity was determined using Promega One-Glo (Cat #E6130) and a Perkin Elmer Envision plate reader. RLU were plotted in GraphPad Prism using a four-parameter logistic equation over a 12-point response curve to calculate EC50 values. […] The signal to noise (S:N) is determined by taking the ratio of the highest RLU on the curve to the lowest.

[3] = system: established BCMA-expressing NCI-H929 tumors; assay: Established NCI-H929 + PBMC xenogenic tumor model, treatment from day 5 (Example 12); format: in vivo, mouse; settings: for Average Tumor Size (mm3) ± SEM on Day 5: Day 5 (day of first dose)
Description: To determine the in vivo efficacy of anti-BCMA×anti-CD3 bispecific antibodies (Abs), a xenogenic tumor study was performed. Immunodeficient NOD.Cg-Prkdc^scidIl2rg^tm1Wji/SzJ (NSG) mice were subcutaneously implanted with a mixture of 10×10^6 BCMA-expressing NCI-H929 human multiple myeloma tumor cells and 0.5×10^6 human peripheral blood mononuclear cells (PBMC) isolated from a normal, healthy donor. The tumors were allowed to grow and establish for 5 days until they were approximately 70 mm^3 in size. […] The mice were administered these Abs twice per week for a total of seven doses, and tumor growth was assessed over 55 days. While BCMA^+ NCI-H929 tumors grew similarly in the vehicle- and CD3-binding control-treated mice, both BCMA×CD3 Abs that were tested shrank established tumors and prevented the growth of tumors in a dose-dependent manner in vivo.
Implantation and measurement of xenogenic tumors: NSG mice were subcutaneously implanted with a mixture of 10×10^6 BCMA-expressing NCI-H929 multiple myeloma cells and 0.5×10^6 PBMC derived from a normal, healthy donor. The tumors were allowed to grow and establish for 5 days until they were approximately 70 mm^3 in size. […] The mice were administered Abs twice per week for a total of seven doses. Tumor growth was measured with calipers twice per week for the duration of the experiment.
Calculation of xenogenic tumor growth and inhibition: In order to determine tumor volume by external caliper, the greatest longitudinal diameter (length in mm) and the greatest transverse diameter (width in mm) were determined. Tumor volumes based on caliper measurements were calculated by the formula: Volume (mm^3) […] (length×width^2)/2.

Substance | S:N [2] | Average Tumor Size (mm3) ± SEM on Day 5 ([3]; 0.04 mg/kg) [mm3] | Average Tumor Size (mm3) ± SEM on Day 8 ([3]; 0.04 mg/kg) [mm3] | Average Tumor Size (mm3) ± SEM on Day 12 ([3]; 0.04 mg/kg) [mm3] | Average Tumor Size (mm3) ± SEM on Day 15 ([3]; 0.04 mg/kg) [mm3] | Average Tumor Size (mm3) ± SEM on Day 19 ([3]; 0.04 mg/kg) [mm3] | Average Tumor Size (mm3) ± SEM on Day 22 ([3]; 0.04 mg/kg) [mm3] | Average Tumor Size (mm3) ± SEM on Day 5 ([3]; 0.4 mg/kg) [mm3] | Average Tumor Size (mm3) ± SEM on Day 8 ([3]; 0.4 mg/kg) [mm3] | Average Tumor Size (mm3) ± SEM on Day 12 ([3]; 0.4 mg/kg) [mm3] | Average Tumor Size (mm3) ± SEM on Day 15 ([3]; 0.4 mg/kg) [mm3] | Average Tumor Size (mm3) ± SEM on Day 19 ([3]; 0.4 mg/kg) [mm3] | Average Tumor Size (mm3) ± SEM on Day 22 ([3]; 0.4 mg/kg) [mm3] | Average Tumor Size (mm3) ± SEM on Day 27 ([3]; 0.4 mg/kg) [mm3] | Average Tumor Size (mm3) ± SEM on Day 30 ([3]; 0.4 mg/kg) [mm3] | Average Tumor Size (mm3) ± SEM on Day 35 ([3]; 0.4 mg/kg) [mm3] | Average Tumor Size (mm3) ± SEM on Day 40 ([3]; 0.4 mg/kg) [mm3] | Average Tumor Size (mm3) ± SEM on Day 55 ([3]; 0.4 mg/kg) [mm3] | Average Tumor Size (mm3) ± SEM on Day 5 ([3]; 4 mg/kg) [mm3] | Average Tumor Size (mm3) ± SEM on Day 8 ([3]; 4 mg/kg) [mm3] | further results
REGN5458: anti-BCMA×anti-CD3 bispecific antibody: BCMA HCVR of mAb21581 (SEQ 66), CD3 HCVR of mAb7221G (SEQ 90), common LCVR SEQ 82 | 55 | 58.1 ± 5.6 | 130.3 ± 16.7 | 525.9 ± 71.5 | 1031.2 ± 164.3 | 2467.5 ± 370.0 | 3745.7 ± 541.2 | 69.3 ± 7.3 | 120.3 ± 16.3 | 262.7 ± 61.6 | 476.2 ± 133.5 | 1347.5 ± 334.7 | 2068.5 ± 465.0 | 3463.9 ± 1025.0 | 2144.2 ± 2144.2 | 0 ± 0 | 0 ± 0 | 0 ± 0 | 71.9 ± 10.3 | 64.7 ± 16.4 | pEC50 [1]: 7.82; Average Tumor Size (mm3) ± SEM on Day 27 ([3]; 0.04 mg/kg): 1589.1 ± 0 mm3; Average Tumor Size (mm3) ± SEM on Day 30 ([3]; 0.04 mg/kg): 2886.5 ± 0 mm3; Average Tumor Size (mm3) ± SEM on Day 12 ([3]; 4 mg/kg): 19.5 ± 10.9 mm3; Average Tumor Size (mm3) ± SEM on Day 15 ([3]; 4 mg/kg): 25.6 ± 19.2 mm3; Average Tumor Size (mm3) ± SEM on Day 19 ([3]; 4 mg/kg): 40.6 ± 32.8 mm3; Average Tumor Size (mm3) ± SEM on Day 22 ([3]; 4 mg/kg): 78.3 ± 60.8 mm3; Average Tumor Size (mm3) ± SEM on Day 27 ([3]; 4 mg/kg): 252.3 ± 185.1 mm3; Average Tumor Size (mm3) ± SEM on Day 30 ([3]; 4 mg/kg): 411.3 ± 307.2 mm3; Average Tumor Size (mm3) ± SEM on Day 35 ([3]; 4 mg/kg): 633.5 ± 473.5 mm3; Average Tumor Size (mm3) ± SEM on Day 40 ([3]; 4 mg/kg): 369.5 ± 369.5 mm3; Average Tumor Size (mm3) ± SEM on Day 55 ([3]; 4 mg/kg): 0 ± 0 mm3
REGN5459: anti-BCMA×anti-CD3 bispecific antibody: BCMA HCVR of mAb21581 (SEQ 66), CD3 HCVR of mAb7221G20 (SEQ 98), common LCVR SEQ 82 | 42 | 74.9 ± 6.4 | 152.3 ± 20.0 | 462.5 ± 57.7 | 1094.2 ± 78.9 | 2412.5 ± 184.6 | 3285.9 ± 227.3 | 69.5 ± 4.1 | 171.9 ± 23.2 | 233.8 ± 63.5 | 327.2 ± 135.6 | 606.2 ± 288.8 | 815.4 ± 387.1 | 1849.9 ± 903.1 | 661.8 ± 490.1 | 996.8 ± 771.0 | 375.6 ± 375.6 | 0 ± 0 | 61.8 ± 5.2 | 45.8 ± 9.8 | Jurkat-mfCD3 EC50 [M] [1]: did not bind; also recorded: No Binding; Average Tumor Size (mm3) ± SEM on Day 15 ([3]; 4 mg/kg): 0 ± 0 mm3; Average Tumor Size (mm3) ± SEM on Day 19 ([3]; 4 mg/kg): 0 ± 0 mm3; Average Tumor Size (mm3) ± SEM on Day 22 ([3]; 4 mg/kg): 0 ± 0 mm3; Average Tumor Size (mm3) ± SEM on Day 27 ([3]; 4 mg/kg): 0 ± 0 mm3; Average Tumor Size (mm3) ± SEM on Day 30 ([3]; 4 mg/kg): 0 ± 0 mm3; Average Tumor Size (mm3) ± SEM on Day 35 ([3]; 4 mg/kg): 0 ± 0 mm3; Average Tumor Size (mm3) ± SEM on Day 40 ([3]; 4 mg/kg): 0 ± 0 mm3; Average Tumor Size (mm3) ± SEM on Day 55 ([3]; 4 mg/kg): 0 ± 0 mm3
